The supplement of paper PMC10307832

Legend:
Test in all cases: relative viability (nuclei count vs DMSO), 5 days (fraction); higher = more cells survive
[1] = tested on: 201T
Procedure, shortened: (§1)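 One day after seeding in 1536-well plates, lung cancer cell lines were dosed by pin tool. Dosing was either single-drug or a fixed anchor-drug dose plus five library-drug doses (not always all listed) in √10 steps. After 5 days, nuclei were stained in one fix-and-stain step and counted on 4× images, and relative viability is the nuclei count of treated wells over that of vehicle wells, given as the median of duplicate plates.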

[2] = tested on: ABC-1
Procedure, shortened: as §1

[3] = tested on: CAL-12T
Procedure, shortened: as §1

[4] = tested on: EMC-BAC-2
Procedure, shortened: as §1

[5] = tested on: H3255
Procedure, shortened: as §1

[6] = tested on: HOP-62
Procedure, shortened: as §1

[7] = tested on: LK-2
Procedure, shortened: as §1

[8] = tested on: LXF-289
Procedure, shortened: as §1

[9] = tested on: NCI-H1651
Procedure, shortened: as §1

[10] = tested on: NCI-H1734
Procedure, shortened: as §1

[11] = tested on: NCI-H1755
Procedure, shortened: as §1

[12] = tested on: NCI-H2009
Procedure, shortened: as §1

[13] = tested on: NCI-H2087
Procedure, shortened: as §1

[14] = tested on: NCI-H2126
Procedure, shortened: as §1

[15] = tested on: NCI-H2170
Procedure, shortened: as §1

[16] = tested on: NCI-H3122
Procedure, shortened: as §1

[17] = tested on: NCI-H322M
Procedure, shortened: as §1

[18] = tested on: NCI-H441
Procedure, shortened: as §1

[19] = tested on: NCI-H596
Procedure, shortened: as §1

[20] = tested on: NCI-H647
Procedure, shortened: as §1

[21] = tested on: PC-14
Procedure, shortened: as §1

[22] = tested on: SK-MES-1
Procedure, shortened: as §1

With `O=C(O)CCCCC(CCSCc1ccccc1)SCc1ccccc1` (stereo not given) [CPI-613] + Cc1nc(NC(=O)N2CCC[C@H]2C(N)=O)sc1-c1ccnc(C(C)(C)C(F)(F)F)c1 [Alpelisib] (partner 2 µM) as the molecule, how does the relative viability ([1]; first compound 5 µM) read?
Its relative viability is 1.

What about the relative viability ([1]; first compound 15.81 µM) of the same molecule?
Its relative viability is 0.976.

And the relative viability ([1]; first compound 50 µM)?
Its relative viability is 0.996.

What about the relative viability ([1]; first compound 158.11 µM) of the same molecule?
The relative viability was 1.01.

And the relative viability ([1]; first compound 500 µM)?
The relative viability was 1.01.

What about the relative viability ([2]; first compound 5 µM) of the same molecule?
The relative viability was 1.02.

What about the relative viability ([2]; first compound 15.81 µM) of the same molecule?
Its relative viability is 1.2.

And the relative viability ([2]; first compound 50 µM)?
Its relative viability is 1.26.

And the relative viability ([2]; first compound 158.11 µM)?
The relative viability was 0.39.

And the relative viability ([2]; first compound 500 µM)?
Its relative viability is 0.223.

And the relative viability ([3]; first compound 5 µM)?
Its relative viability is 1.

And the relative viability ([3]; first compound 15.81 µM)?
The relative viability was 1.11.

And the relative viability ([3]; first compound 50 µM)?
The relative viability was 1.14.

What about the relative viability ([3]; first compound 158.11 µM) of the same molecule?
Its relative viability is 0.0352.

What about the relative viability ([3]; first compound 500 µM) of the same molecule?
The relative viability was 0.0082.

And the relative viability ([4]; first compound 5 µM)?
Its relative viability is 0.713.

And the relative viability ([4]; first compound 15.81 µM)?
Its relative viability is 0.702.

What about the relative viability ([4]; first compound 50 µM) of the same molecule?
Its relative viability is 0.72.

And the relative viability ([4]; first compound 158.11 µM)?
Its relative viability is 0.68.

And the relative viability ([4]; first compound 500 µM)?
Its relative viability is 0.119.

What about the relative viability ([5]; first compound 5 µM) of the same molecule?
Its relative viability is 0.695.

What about the relative viability ([5]; first compound 15.81 µM) of the same molecule?
The relative viability was 0.576.

And the relative viability ([5]; first compound 50 µM)?
Its relative viability is 0.695.

What about the relative viability ([5]; first compound 158.11 µM) of the same molecule?
Its relative viability is 0.639.

What about the relative viability ([5]; first compound 500 µM) of the same molecule?
The relative viability was 0.672.

And the relative viability ([6]; first compound 5 µM)?
The relative viability was 1.07.

What about the relative viability ([6]; first compound 15.81 µM) of the same molecule?
The relative viability was 0.833.

What about the relative viability ([6]; first compound 50 µM) of the same molecule?
Its relative viability is 0.916.

What about the relative viability ([6]; first compound 158.11 µM) of the same molecule?
Its relative viability is 0.189.

And the relative viability ([6]; first compound 500 µM)?
Its relative viability is 0.246.

And the relative viability ([7]; first compound 5 µM)?
The relative viability was 1.01.

What about the relative viability ([7]; first compound 15.81 µM) of the same molecule?
Its relative viability is 0.98.

And the relative viability ([7]; first compound 50 µM)?
Its relative viability is 1.06.

What about the relative viability ([7]; first compound 158.11 µM) of the same molecule?
Its relative viability is 1.16.

What about the relative viability ([7]; first compound 500 µM) of the same molecule?
The relative viability was 0.82.

What about the relative viability ([8]; first compound 5 µM) of the same molecule?
The relative viability was 1.02.

What about the relative viability ([8]; first compound 15.81 µM) of the same molecule?
The relative viability was 0.961.

What about the relative viability ([8]; first compound 50 µM) of the same molecule?
Its relative viability is 0.988.

And the relative viability ([8]; first compound 158.11 µM)?
The relative viability was 0.318.

What about the relative viability ([8]; first compound 500 µM) of the same molecule?
The relative viability was 0.0306.

And the relative viability ([9]; first compound 5 µM)?
Its relative viability is 0.969.

And the relative viability ([9]; first compound 15.81 µM)?
The relative viability was 0.895.

And the relative viability ([9]; first compound 50 µM)?
The relative viability was 0.967.

What about the relative viability ([9]; first compound 158.11 µM) of the same molecule?
Its relative viability is 0.41.

What about the relative viability ([9]; first compound 500 µM) of the same molecule?
The relative viability was 0.116.

And the relative viability ([10]; first compound 5 µM)?
Its relative viability is 0.629.

And the relative viability ([10]; first compound 15.81 µM)?
Its relative viability is 0.694.

What about the relative viability ([10]; first compound 50 µM) of the same molecule?
Its relative viability is 0.625.

And the relative viability ([10]; first compound 158.11 µM)?
The relative viability was 0.493.

What about the relative viability ([10]; first compound 500 µM) of the same molecule?
The relative viability was 0.098.

And the relative viability ([11]; first compound 5 µM)?
Its relative viability is 0.91.

What about the relative viability ([11]; first compound 15.81 µM) of the same molecule?
The relative viability was 0.89.

What about the relative viability ([11]; first compound 50 µM) of the same molecule?
Its relative viability is 0.837.

What about the relative viability ([11]; first compound 158.11 µM) of the same molecule?
Its relative viability is 0.769.

And the relative viability ([11]; first compound 500 µM)?
The relative viability was 0.251.

And the relative viability ([12]; first compound 5 µM)?
The relative viability was 1.19.

And the relative viability ([12]; first compound 15.81 µM)?
Its relative viability is 1.1.

What about the relative viability ([12]; first compound 50 µM) of the same molecule?
Its relative viability is 1.12.

What about the relative viability ([12]; first compound 158.11 µM) of the same molecule?
The relative viability was 0.141.

And the relative viability ([12]; first compound 500 µM)?
Its relative viability is 0.014.

And the relative viability ([13]; first compound 5 µM)?
Its relative viability is 1.14.

And the relative viability ([13]; first compound 15.81 µM)?
Its relative viability is 0.95.

And the relative viability ([13]; first compound 50 µM)?
Its relative viability is 0.95.

And the relative viability ([13]; first compound 158.11 µM)?
The relative viability was 0.0725.

What about the relative viability ([13]; first compound 500 µM) of the same molecule?
Its relative viability is 0.0158.

And the relative viability ([14]; first compound 5 µM)?
The relative viability was 0.755.

And the relative viability ([14]; first compound 15.81 µM)?
The relative viability was 0.815.

And the relative viability ([14]; first compound 50 µM)?
The relative viability was 0.78.

What about the relative viability ([14]; first compound 158.11 µM) of the same molecule?
Its relative viability is 0.749.

And the relative viability ([14]; first compound 500 µM)?
The relative viability was 0.747.

What about the relative viability ([15]; first compound 5 µM) of the same molecule?
Its relative viability is 0.808.

And the relative viability ([15]; first compound 15.81 µM)?
The relative viability was 0.766.

What about the relative viability ([15]; first compound 50 µM) of the same molecule?
The relative viability was 0.796.

What about the relative viability ([15]; first compound 158.11 µM) of the same molecule?
Its relative viability is 0.547.

And the relative viability ([15]; first compound 500 µM)?
The relative viability was 0.483.

And the relative viability ([16]; first compound 5 µM)?
Its relative viability is 0.638.

And the relative viability ([16]; first compound 15.81 µM)?
Its relative viability is 0.751.

And the relative viability ([16]; first compound 50 µM)?
Its relative viability is 0.715.

And the relative viability ([16]; first compound 158.11 µM)?
The relative viability was 0.528.

What about the relative viability ([16]; first compound 500 µM) of the same molecule?
The relative viability was 0.0415.

And the relative viability ([17]; first compound 5 µM)?
The relative viability was 0.746.

What about the relative viability ([17]; first compound 15.81 µM) of the same molecule?
Its relative viability is 0.721.

And the relative viability ([17]; first compound 50 µM)?
The relative viability was 0.729.

And the relative viability ([17]; first compound 158.11 µM)?
Its relative viability is 0.416.

What about the relative viability ([17]; first compound 500 µM) of the same molecule?
Its relative viability is 0.757.

And the relative viability ([18]; first compound 5 µM)?
The relative viability was 0.692.

What about the relative viability ([18]; first compound 15.81 µM) of the same molecule?
The relative viability was 1.01.

What about the relative viability ([18]; first compound 50 µM) of the same molecule?
Its relative viability is 0.573.

What about the relative viability ([18]; first compound 158.11 µM) of the same molecule?
The relative viability was 0.216.

And the relative viability ([18]; first compound 500 µM)?
The relative viability was 0.007.

And the relative viability ([19]; first compound 5 µM)?
The relative viability was 0.539.

And the relative viability ([19]; first compound 15.81 µM)?
Its relative viability is 0.496.

What about the relative viability ([19]; first compound 50 µM) of the same molecule?
Its relative viability is 0.539.

And the relative viability ([19]; first compound 158.11 µM)?
The relative viability was 0.473.

And the relative viability ([19]; first compound 500 µM)?
Its relative viability is 0.0181.

What about the relative viability ([20]; first compound 5 µM) of the same molecule?
The relative viability was 1.19.

And the relative viability ([20]; first compound 15.81 µM)?
Its relative viability is 0.968.

And the relative viability ([20]; first compound 50 µM)?
Its relative viability is 0.769.

And the relative viability ([20]; first compound 158.11 µM)?
Its relative viability is 0.0933.

And the relative viability ([20]; first compound 500 µM)?
The relative viability was 0.0159.

And the relative viability ([21]; first compound 5 µM)?
Its relative viability is 0.97.

And the relative viability ([21]; first compound 15.81 µM)?
Its relative viability is 0.884.

And the relative viability ([21]; first compound 50 µM)?
The relative viability was 0.849.

And the relative viability ([21]; first compound 158.11 µM)?
Its relative viability is 1.01.

What about the relative viability ([21]; first compound 500 µM) of the same molecule?
The relative viability was 0.863.

And the relative viability ([22]; first compound 5 µM)?
Its relative viability is 0.894.

And the relative viability ([22]; first compound 15.81 µM)?
The relative viability was 0.982.

What about the relative viability ([22]; first compound 50 µM) of the same molecule?
Its relative viability is 0.784.

What about the relative viability ([22]; first compound 158.11 µM) of the same molecule?
Its relative viability is 0.724.

What about the relative viability ([22]; first compound 500 µM) of the same molecule?
Its relative viability is 0.785.
